Assay results published in PubChem BioAssay AID1963451 (Molecular Pharmacology Branch, DTP, NCI, 2024).

Tested on: 521955-158-R6-J3-PDC complex spheroid growth, % test/control
Experiment: Anticancer human tumor 521955-158-R6-J3-PDC patient-derived pancreatic carcinoma cell line growth inhibition [Asc]
Details: for IC50: curve of first compound; for viability, T/C: stronger effect = lower value
In short: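 Spheroid model: tumor line + HUVEC + hMSC. Single agents and combinations; top conc. at/near clinical Cmax (10 microM if undetermined), half-log dilutions. DMSO stocks at 800-fold test concentration.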

[1] = second compound 0.00316 µM, first compound 0.00316 µM
[2] = second compound 0.00316 µM, first compound 0.01 µM
[3] = second compound 0.00316 µM, first compound 0.0316 µM
[4] = second compound 0.00316 µM, first compound 0.1 µM
[5] = second compound 0.00316 µM, first compound 0.316 µM
[6] = second compound 0.00316 µM, first compound 1 µM
[7] = second compound 0.01 µM, first compound 0.00316 µM
[8] = second compound 0.01 µM, first compound 0.01 µM
[9] = second compound 0.01 µM, first compound 0.0316 µM
[10] = second compound 0.01 µM, first compound 0.1 µM
[11] = second compound 0.01 µM, first compound 0.316 µM
[12] = second compound 0.01 µM, first compound 1 µM
[13] = second compound 0.0316 µM, first compound 0.00316 µM
[14] = second compound 0.0316 µM, first compound 0.01 µM
[15] = second compound 0.0316 µM, first compound 0.0316 µM
[16] = second compound 0.0316 µM, first compound 0.1 µM
[17] = second compound 0.0316 µM, first compound 0.316 µM
[18] = second compound 0.0316 µM, first compound 1 µM
[19] = second compound 0.1 µM, first compound 0.00316 µM
[20] = second compound 0.1 µM, first compound 0.01 µM
[21] = second compound 0.1 µM, first compound 0.0316 µM
[22] = second compound 0.1 µM, first compound 0.1 µM
[23] = second compound 0.1 µM, first compound 0.316 µM
[24] = second compound 0.1 µM, first compound 1 µM
[25] = second compound 0.316 µM, first compound 0.00316 µM
[26] = second compound 0.316 µM, first compound 0.01 µM
[27] = second compound 0.316 µM, first compound 0.0316 µM
[28] = second compound 0.316 µM, first compound 0.1 µM
[29] = second compound 0.316 µM, first compound 0.316 µM
[30] = second compound 0.316 µM, first compound 1 µM
[31] = second compound 1 µM, first compound 0.00316 µM
[32] = second compound 1 µM, first compound 0.01 µM
[33] = second compound 1 µM, first compound 0.0316 µM
[34] = second compound 1 µM, first compound 0.1 µM
[35] = second compound 1 µM, first compound 0.316 µM
[36] = second compound 1 µM, first compound 1 µM
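Also: spheroids exposed to compounds for 7 days.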
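For viability, T/C in this document: 100% = DMSO vehicle control wells.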

**Q.** For `CCN1CCN(Cc2ccc(Nc3ncc(F)c(-c4cc(F)c5nc(C)n(C(C)C)c5c4)n3)nc2)CC1` + CNC(C)C(=O)NC1CN(S(=O)(=O)c2cccc(S(=O)(=O)N3CCC4CCC(C(=O)NC(c5ccccc5)c5ccccc5)N4C(=O)C(NC(=O)C(C)NC)C3)c2)CCC2CCC(C(=O)NC(c3ccccc3)c3ccccc3)N2C1=O, which IC50 (second compound 0.00316 µM) is on record?
**A.** > 1000 nM

**Q.** And the IC50 (second compound 0.01 µM)?
**A.** > 1000 nM

**Q.** What about the IC50 (second compound 0.0316 µM) of the same compound?
**A.** > 1000 nM

**Q.** What about the IC50 (second compound 0.1 µM) of the same compound?
**A.** > 1000 nM

**Q.** And the IC50 (second compound 0.316 µM)?
**A.** > 1000 nM

**Q.** What about the IC50 (second compound 1 µM) of the same compound?
**A.** > 1000 nM

**Q.** And the viability, T/C [1]?
**A.** 174%

**Q.** What about the viability, T/C [2] of the same compound?
**A.** 141%

**Q.** What about the viability, T/C [3] of the same compound?
**A.** 140%

**Q.** What about the viability, T/C [4] of the same compound?
**A.** 153%

**Q.** What about the viability, T/C [5] of the same compound?
**A.** 136%

**Q.** And the viability, T/C [6]?
**A.** 120%

**Q.** And the viability, T/C [7]?
**A.** 94.2%

**Q.** And the viability, T/C [8]?
**A.** 76.4%

**Q.** What about the viability, T/C [9] of the same compound?
**A.** 86.1%

**Q.** What about the viability, T/C [10] of the same compound?
**A.** 75.9%

**Q.** And the viability, T/C [11]?
**A.** 74.9%

**Q.** What about the viability, T/C [12] of the same compound?
**A.** 86.4%

**Q.** And the viability, T/C [13]?
**A.** 103%

**Q.** And the viability, T/C [14]?
**A.** 82.1%

**Q.** And the viability, T/C [15]?
**A.** 73.6%

**Q.** What about the viability, T/C [16] of the same compound?
**A.** 83.4%

**Q.** What about the viability, T/C [17] of the same compound?
**A.** 83.6%

**Q.** And the viability, T/C [18]?
**A.** 92.1%

**Q.** And the viability, T/C [19]?
**A.** 107%

**Q.** What about the viability, T/C [20] of the same compound?
**A.** 114%

**Q.** What about the viability, T/C [21] of the same compound?
**A.** 102%

**Q.** And the viability, T/C [22]?
**A.** 75.9%

**Q.** And the viability, T/C [23]?
**A.** 88.2%

**Q.** And the viability, T/C [24]?
**A.** 100%

**Q.** What about the viability, T/C [25] of the same compound?
**A.** 87.4%

**Q.** And the viability, T/C [26]?
**A.** 78.8%

**Q.** And the viability, T/C [27]?
**A.** 71%

**Q.** What about the viability, T/C [28] of the same compound?
**A.** 66.5%

**Q.** What about the viability, T/C [29] of the same compound?
**A.** 67.1%

**Q.** And the viability, T/C [30]?
**A.** 71%

**Q.** What about the viability, T/C [31] of the same compound?
**A.** 86.3%

**Q.** And the viability, T/C [32]?
**A.** 81.3%

**Q.** And the viability, T/C [33]?
**A.** 71.8%

**Q.** And the viability, T/C [34]?
**A.** 72.8%

**Q.** What about the viability, T/C [35] of the same compound?
**A.** 77.3%

**Q.** What about the viability, T/C [36] of the same compound?
**A.** 83.9%

**Q.** What does the source list for `NC(=O)C(=Cn1cnc(-c2cc(C(F)(F)F)cc(C(F)(F)F)c2)n1)c1cncnc1` + CNC(C)C(=O)NC1CN(S(=O)(=O)c2cccc(S(=O)(=O)N3CCC4CCC(C(=O)NC(c5ccccc5)c5ccccc5)N4C(=O)C(NC(=O)C(C)NC)C3)c2)CCC2CCC(C(=O)NC(c3ccccc3)c3ccccc3)N2C1=O?
**A.** IC50 (second compound 0.00316 µM): > 300 nM; IC50 (second compound 0.01 µM): > 300 nM; IC50 (second compound 0.0316 µM): > 300 nM; IC50 (second compound 0.1 µM): > 300 nM; IC50 (second compound 0.316 µM): > 300 nM; IC50 (second compound 1 µM): > 300 nM; viability, T/C (second compound 0.00316 µM, first compound 0.000949 µM): 114%; viability, T/C (second compound 0.00316 µM, first compound 0.003 µM): 122%; viability, T/C (second compound 0.00316 µM, first compound 0.00949 µM): 119%; viability, T/C (second compound 0.00316 µM, first compound 0.03 µM): 104%; viability, T/C (second compound 0.00316 µM, first compound 0.0949 µM): 93.9%; viability, T/C (second compound 0.00316 µM, first compound 0.3 µM): 66.5%; viability, T/C (second compound 0.01 µM, first compound 0.000949 µM): 71%; viability, T/C (second compound 0.01 µM, first compound 0.003 µM): 69.2%; viability, T/C (second compound 0.01 µM, first compound 0.00949 µM): 59.2%; viability, T/C (second compound 0.01 µM, first compound 0.03 µM): 81.7%; viability, T/C (second compound 0.01 µM, first compound 0.0949 µM): 83.7%; viability, T/C (second compound 0.01 µM, first compound 0.3 µM): 75.5%; viability, T/C (second compound 0.0316 µM, first compound 0.000949 µM): 79.5%; viability, T/C (second compound 0.0316 µM, first compound 0.003 µM): 59.5%; viability, T/C (second compound 0.0316 µM, first compound 0.00949 µM): 63.9%; viability, T/C (second compound 0.0316 µM, first compound 0.03 µM): 62.9%; viability, T/C (second compound 0.0316 µM, first compound 0.0949 µM): 79.6%; viability, T/C (second compound 0.0316 µM, first compound 0.3 µM): 66.6%; viability, T/C (second compound 0.1 µM, first compound 0.000949 µM): 65.7%; viability, T/C (second compound 0.1 µM, first compound 0.003 µM): 69%; viability, T/C (second compound 0.1 µM, first compound 0.00949 µM): 65.2%; viability, T/C (second compound 0.1 µM, first compound 0.03 µM): 58.7%; viability, T/C (second compound 0.1 µM, first compound 0.0949 µM): 75.2%; viability, T/C (second compound 0.1 µM, first compound 0.3 µM): 75.1%; viability, T/C (second compound 0.316 µM, first compound 0.000949 µM): 61%; viability, T/C (second compound 0.316 µM, first compound 0.003 µM): 69.9%; viability, T/C (second compound 0.316 µM, first compound 0.00949 µM): 70.3%; viability, T/C (second compound 0.316 µM, first compound 0.03 µM): 71%; viability, T/C (second compound 0.316 µM, first compound 0.0949 µM): 68%; viability, T/C (second compound 0.316 µM, first compound 0.3 µM): 70.2%; viability, T/C (second compound 1 µM, first compound 0.000949 µM): 54.4%; viability, T/C (second compound 1 µM, first compound 0.003 µM): 66.9%; viability, T/C (second compound 1 µM, first compound 0.00949 µM): 70%; viability, T/C (second compound 1 µM, first compound 0.03 µM): 60.6%; viability, T/C (second compound 1 µM, first compound 0.0949 µM): 86.1%; viability, T/C (second compound 1 µM, first compound 0.3 µM): 62%

**Q.** Which results are given for `O=C(c1ccc(F)c(F)c1Nc1ccc(I)cc1F)N1CC(O)([C@@H]2CCCCN2)C1` + CNC(C)C(=O)NC1CN(S(=O)(=O)c2cccc(S(=O)(=O)N3CCC4CCC(C(=O)NC(c5ccccc5)c5ccccc5)N4C(=O)C(NC(=O)C(C)NC)C3)c2)CCC2CCC(C(=O)NC(c3ccccc3)c3ccccc3)N2C1=O?
**A.** IC50 (second compound 0.00316 µM): 569 nM; IC50 (second compound 0.01 µM): 261 nM; IC50 (second compound 0.0316 µM): 291 nM; IC50 (second compound 0.1 µM): 503 nM; IC50 (second compound 0.316 µM): 207 nM; IC50 (second compound 1 µM): 139 nM; viability, T/C [1]: 150%; viability, T/C [2]: 127%; viability, T/C [3]: 120%; viability, T/C [4]: 105%; viability, T/C [5]: 60%; viability, T/C [6]: 36%; viability, T/C [7]: 87.4%; viability, T/C [8]: 84.9%; viability, T/C [9]: 94.8%; viability, T/C [10]: 74.9%; viability, T/C [11]: 45.5%; viability, T/C [12]: 30.7%; viability, T/C [13]: 88.7%; viability, T/C [14]: 88.6%; viability, T/C [15]: 90.1%; viability, T/C [16]: 72%; viability, T/C [17]: 49.2%; viability, T/C [18]: 31%; viability, T/C [19]: 117%; viability, T/C [20]: 94.3%; viability, T/C [21]: 102%; viability, T/C [22]: 83.8%; viability, T/C [23]: 65.7%; viability, T/C [24]: 28.7%; viability, T/C [25]: 72.6%; viability, T/C [26]: 76.1%; viability, T/C [27]: 72.5%; viability, T/C [28]: 61%; viability, T/C [29]: 43.6%; viability, T/C [30]: 29.9%; viability, T/C [31]: 78.9%; viability, T/C [32]: 70.9%; viability, T/C [33]: 95.4%; viability, T/C [34]: 56.5%; viability, T/C [35]: 39.5%; viability, T/C [36]: 27.4%
